Measured values taken from ChEMBL document CHEMBL3588788, “Structure-activity relationship of hybrids of Cinchona alkaloids and bile acids with in vitro antiplasmodial and antitrypanosomal activities” (Eur J Med Chem, 2015).

Assays:
[1] = Cytotoxicity against human WI38 cells by MTT assay; format: cell-based, WI-38; conditions: Homo sapiens, WI-38; read-out: IC50
[2] = tested on: Trypanosoma brucei brucei; assay: Antitrypanosomal activity against Trypanosoma brucei brucei Lister 427 bloodstream forms by microtiter plate based assay; format: functional, organism-based
[3] = tested on: Trypanosoma brucei brucei; assay: Potency index, ratio of IC50 for CND to IC50 for test compound against Trypanosoma brucei brucei Lister 427 bloodstream forms by microtiter plate based assay; format: functional
Plasmodium falciparum [4] = assay: Antiplasmodial activity against Plasmodium falciparum 3D7 assessed as reduction in parasite viability by parasite lactate dehydrogenase assay; format: functional, organism-based
[5] = Selectivity index, ratio of IC50 against human WI38 cells to IC50 for Plasmodium falciparum 3D7; format: toxicity, cell-based, WI-38; conditions: read-out: Ratio IC50
Plasmodium falciparum [6] = assay: Potency index, ratio of IC50 for CND to IC50 for test compound against Plasmodium falciparum 3D7 by parasite lactate dehydrogenase assay; format: functional
in vitro = conditions: human, WI38 cells
Description: Selectivity index, ratio of IC50 against human WI38 cells to IC50 for Trypanosoma brucei brucei Lister 427 bloodstream forms

[7] = tested on: Trypanosoma brucei brucei; assay: Potency index, ratio of IC50 for CN to IC50 for test compound against Trypanosoma brucei brucei Lister 427 bloodstream forms by microtiter plate based assay; format: functional
Plasmodium falciparum [8] = assay: Potency index, ratio of IC50 for CN to IC50 for test compound against Plasmodium falciparum 3D7 by parasite lactate dehydrogenase assay; format: functional

SMILES	IC50 [2] [nM]	IC50 [1] [nM]	Ratio IC50 [3]	IC50 (Plasmodium falciparum [4]) [nM]	selectivity ratio [5]	Ratio IC50 (Plasmodium falciparum [6])	selectivity ratio (in vitro)	Ratio IC50 [7]	Ratio IC50 (Plasmodium falciparum [8])
C=C[C@H]1CN2CC[C@H]1C[C@H]2[C@H](O)c1cc(CC[C@@H](C)[C@H]2CC[C@H]3[C@@H]4[C@H](OC(C)=O)[C@H](OC(C)=O)[C@@H]5C[C@H](OC(C)=O)CC[C@]5(C)[C@H]4CC[C@]23C)nc2ccccc12	520	3750	119.8	36.1	104	26.6	7.2		
C=C[C@H]1CN2CC[C@H]1C[C@H]2[C@H](O)c1cc(CC[C@@H](C)[C@H]2CC[C@H]3[C@@H]4[C@H](OC(C)=O)C[C@@H]5C[C@H](OC(C)=O)CC[C@]5(C)[C@H]4C[C@H](OC(C)=O)[C@]23C)nc2ccccc12	1470	6700	42.4	40.6	165	23.7	4.6		
C=C[C@H]1CN2CC[C@H]1C[C@H]2[C@H](O)c1cc(CC[C@@H](C)[C@H]2CC[C@H]3[C@@H]4CC[C@@H]5C[C@H](OC(C)=O)CC[C@]5(C)[C@H]4C[C@H](OC(C)=O)[C@]23C)nc2ccccc12	570	4060	108.2	77.2	53	12.5	7.1		
C=C[C@H]1CN2CC[C@H]1C[C@@H]2[C@@H](O)c1cc(CC[C@@H](C)[C@H]2CC[C@H]3[C@@H]4CC[C@@H]5C[C@H](OC(C)=O)CC[C@]5(C)[C@H]4C[C@H](OC(C)=O)[C@]23C)nc2ccccc12	1510	4800		171	28.1		3.2	45.1	1.7

More lines, main results first:

IC50 [2] [nM]	SMILES	IC50 [1] [nM]	Ratio IC50 [3]	IC50 (Plasmodium falciparum [4]) [nM]	selectivity ratio [5]	Ratio IC50 (Plasmodium falciparum [6])	selectivity ratio (in vitro)	Ratio IC50 [7]	Ratio IC50 (Plasmodium falciparum [8])
660	C=C[C@H]1CN2CC[C@H]1C[C@H]2[C@H](O)c1cc(CC[C@@H](C)[C@H]2CC[C@H]3[C@@H]4CC[C@@H]5C[C@H](O)CC[C@]5(C)[C@H]4C[C@H](O)[C@]23C)nc2ccccc12	5640	94.8	320	18	3	8.6		
530	C=C[C@H]1CN2CC[C@H]1C[C@H]2[C@H](O)c1cc(CC[C@@H](C)[C@H]2CC[C@H]3[C@@H]4C[C@H](O)[C@@H]5C[C@H](O)CC[C@]5(C)[C@H]4CC[C@]23C)nc2ccccc12	3280	116.7	92.1	36	10.5	6.2		
1750	C=C[C@H]1CN2CC[C@H]1C[C@H]2[C@H](O)c1cc(CC[C@@H](C)[C@H]2CC[C@H]3[C@@H]4[C@H](O)C[C@@H]5C[C@H](O)CC[C@]5(C)[C@H]4C[C@H](O)[C@]23C)nc2ccccc12	8090	35.6	1800	4	0.5	4.6		
1180	C=C[C@H]1CN2CC[C@H]1C[C@H]2[C@H](O)c1cc(CC[C@@H](C)[C@H]2CC[C@H]3[C@@H]4C[C@H](OC(C)=O)[C@@H]5C[C@H](OC(C)=O)CC[C@]5(C)[C@H]4CC[C@]23C)nc2ccccc12	4160	52.5	115	36	8.3	3.5		
620	C=C[C@H]1CN2CC[C@H]1C[C@H]2[C@H](O)c1cc(CC[C@@H](C)[C@H]2CC[C@H]3[C@@H]4[C@H](O)[C@H](O)[C@@H]5C[C@H](O)CC[C@]5(C)[C@H]4CC[C@]23C)nc2ccccc12	5320	100.5	392	14	2.5	8.6		
720	C=C[C@H]1CN2CC[C@H]1C[C@@H]2[C@@H](O)c1cc(CC[C@@H](C)[C@H]2CC[C@H]3[C@@H]4C[C@H](O)[C@@H]5C[C@H](O)CC[C@]5(C)[C@H]4CC[C@]23C)nc2ccccc12	5490		71.6	77		7.6	94.5	4.1
